The target of assay [1] is T1, Sentrin-specific protease 1 (Homo sapiens, UniProt Q9P0U3).
T1 sequence (Q9P0U3 whole entry): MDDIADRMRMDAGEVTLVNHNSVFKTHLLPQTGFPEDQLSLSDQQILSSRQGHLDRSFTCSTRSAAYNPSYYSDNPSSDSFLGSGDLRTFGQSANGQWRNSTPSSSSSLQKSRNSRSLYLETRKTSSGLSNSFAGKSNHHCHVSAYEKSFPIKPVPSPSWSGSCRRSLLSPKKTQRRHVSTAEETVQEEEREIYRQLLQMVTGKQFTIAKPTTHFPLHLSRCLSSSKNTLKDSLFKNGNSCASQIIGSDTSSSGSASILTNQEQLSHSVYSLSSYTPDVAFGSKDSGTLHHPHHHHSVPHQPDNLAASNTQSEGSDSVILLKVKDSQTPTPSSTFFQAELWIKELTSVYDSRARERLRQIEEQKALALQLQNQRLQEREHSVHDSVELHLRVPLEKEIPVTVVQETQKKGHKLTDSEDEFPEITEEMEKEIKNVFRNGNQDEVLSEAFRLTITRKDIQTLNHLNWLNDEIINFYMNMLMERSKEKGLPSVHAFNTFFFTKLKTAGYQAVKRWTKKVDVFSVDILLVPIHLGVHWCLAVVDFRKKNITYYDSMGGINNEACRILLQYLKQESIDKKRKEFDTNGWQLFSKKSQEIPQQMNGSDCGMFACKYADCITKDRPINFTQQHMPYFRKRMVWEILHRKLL
The experiment in a line: Inhibition of SENP1 (unknown origin).

The target in assay [2] is T1, Sentrin-specific protease 1. The experiment in a line: Inhibition of human full-length recombinant SENP1.

The values that follow come from ChEMBL document CHEMBL5226359, “Recent research and development of inhibitors targeting sentrin-specific protease 1 for the treatment of cancers” (Eur J Med Chem, 2022).

For orientation: IC50 means the midpoint of a concentration-inhibition curve.

The structures appear in SMILES notation. A value given as a limit tells only on which side of the number the result lay.

As for `Cc1cc(OCC(=O)Nc2nonc2NC(=O)COc2ccc(Cl)c(C)c2)ccc1Cl`, the concentration for half-maximal inhibition (IC50) in assay [1] is above 30 µM.

On to `CCCCOc1ccc(-c2nonc2NC(=O)COc2ccccc2C)cc1`, for which the IC50 in assay [1] is above 30 µM.

As to `O=C(Cc1ccccc1)Oc1c(OC(=O)Cc2ccccc2)c(-c2ccc(O)cc2)c(O)c(O)c1-c1ccc(O)cc1` [VIALININ A], in assay [2], the IC50 worked out at 1.6 µM.
